Measured values reported in patent publication US8853238B2, “Fused heterocyclic compound and use thereof for pest control” (Sumitomo Chemical Company, Limited, priority 2010, dated 2014).

Legend:
Type in all cases: in vivo
[1] = tested on: Adoxophyes orana fasciata; assay: Test Example 8: spray on apple tree, release of Adoxophyes orana fasciata; conditions: in Malus domestica, 168 h; 500 ppm active ingredient; apple tree sprayed with 20 mL/cup; 60 first-instar Adoxophyes orana fasciata; after 7 days; read-out: Death rate
Protocol: On the other hand, an apple tree was planted in a plastic cup, and grown until the seventh-eighth leaf was spread. The apple tree was sprayed with 20 mL/cup of each of the test spray solution. After the test solution was dried, 60 first-instar Adoxophyes orana fasciata were released, and the cup was covered with a plastic cup upside-down which the bottom was cut off and a filter paper was put thereon. After 7 days, the number of living insects was counted, and a death rate was calculated according to the following equation: Death rate (%)=(Number of dead insects/Number of tested insects)×100

Aphis gossypii [2] = assay: Test Example 2: root immersion of cucumber seedling, then inoculation with Aphis gossypii; conditions: 168 h; 500 ppm active ingredient; cucumber root part immersed in 5 ml; 30 Aphis gossypii inoculated one day after treatment; examined after further seven days
Protocol: A root part of a cucumber seedling (the first true leaf stage) from which soil had been washed off was immersed in 5 ml of each of the diluted solutions, and one day after treatment, on the cucumber leaf surface was inoculated with 30 Aphis gossypii (whole stage). After further seven days, the number of insect of living Aphis gossypii parasitized on the leaves of the cucumber was examined, and a control value was calculated according to the following equation: Control value (%)={1−(Cb×Tai)/(Cai×Tb))×100 wherein symbols represent as follows: Cb: the number of insects in a non-treated section before treatment, Cai: the number of insects in a non-treated section in observation, Tb: the number of insects in a treated-section before treatment, Tai: the number of insects in a treated-section in observation; wherein the non-treated section represents a section where the test diluted solution prepared by diluting the formulation without the present compound in Formulation Example 5 with the same amount of water as in the treated-section was used.

Nilaparvata lugens [3] = assay: Test Example 4: spray on rice seedling, release of Nilaparvata lugens larvae; conditions: 144 h; 500 ppm active ingredient; rice seedling sprayed with 10 ml; third-fourth instar larvae of Nilaparvata lugens; after 6 days at 25° C.; read-out: Control value
Bemisia tabaci = assay: Test Example 6: spray on tomato seedling with Bemisia tabaci instar larvae; conditions: 168 h; 500 ppm active ingredient; 20 ml/cup sprayed on tomato seedling with hatched Bemisia tabaci instar larvae; after 7 days at 25° C.
Protocol: On the other hand, Bemisia tabaci adult was released on a tomato seedling (the third true leaf stage) planted in a polyethylene cup, and made to lay eggs for about 72 hours. The tomato seedling was kept in a greenhouse for 8 days. When instar larvae hatched from the eggs, the above test spray solution was sprayed in the amount of 20 ml/cup. The cup was kept in a greenhouse at 25° C. After the keeping for 7 days, the number of surviving instar larvae on the tomato leaves was examined, and a control value was calculated according to the following equation: Control value (%)={1−(Cb×Tai)/(Cai×Tb))×100 wherein symbols represent as follows: Cb: the number of insects in a non-treated section before treatment, Cai: the number of insects in a non-treated section in observation, Tb: the number of insects in a treated-section before treatment, Tai: the number of insects in a treated-section in observation; wherein the non-treated section represents a section where the test spray solution prepared by diluting the formulation without the present compound in Formulation Example 5 with the same amount of water as in the treated-section was sprayed.

Aphis gossypii [4] = assay: Test Example 1: spray on cucumber seedling inoculated with Aphis gossypii; conditions: topical, 144 h; 500 ppm active ingredient (Formulation Example 5 diluted with water); 20 ml sprayed on cucumber seedling with about 30 Aphis gossypii; six days after spraying
Protocol: On the other hand, on a cucumber seedling (the first true leaf stage) planted in a plastic cup was inoculated with about 30 Aphis gossypii, and leaving it for a day. Twenty ml of each of the above test spray solutions was sprayed on this seedling. Six days after spraying, the number of the surviving Aphis gossypii parasitized on the leaves of the cucumber was examined, and a control value was calculated according to the following equation: Control value (%)={1−(Cb×Tai)/(Cai×Tb))×100 wherein symbols represent as follows: Cb: the number of insects in a non-treated section before treatment, Cai: the number of insects in a non-treated section in observation, Tb: the number of insects in a treated-section before treatment, Tai: the number of insects in a treated-section in observation; wherein the non-treated section represents a section where the test spray solution prepared by diluting the formulation without the present compound in Formulation Example 5 with the same amount of water as in the treated-section was sprayed.

Nilaparvata lugens [5] = assay: Test Example 5: drench at foot of rice seedling, release of Nilaparvata lugens larvae; conditions: soil, 144 h; 500 ppm active ingredient; rice seedling drenched at its foot with 5 ml, kept 7 days; twenty third-fourth instar larvae of Nilaparvata lugens; examined after 6 days
Protocol: On the other hand, a rice seedling (2 weeks after sowing, the second leaf stage) planted in a plastic cup was drenched at its foot with 5 ml of each of the diluted solutions, and kept in a greenhouse of 25° C. for 7 days. Twenty third-fourth instar larvae of Nilaparvata lugens were released, and further kept in the greenhouse for 6 days, then the number of insect of living Nilaparvata lugens parasitized on the rice was examined, and a control value was calculated according to the following equation: Control value (%)={1−(Cb×Tai)/(Cai×Tb))×100 wherein symbols represent as follows: Cb: the number of insects in a non-treated section before treatment, Cai: the number of insects in a non-treated section in observation, Tb: the number of insects in a treated-section before treatment, Tai: the number of insects in a treated-section in observation; wherein the non-treated section represents a section where the test diluted solution prepared by diluting the formulation without the present compound in Formulation Example 5 with the same amount of water as in the treated-section was used.

Aphis gossypii [6] = assay: Test Example 3: drench at foot of cucumber seedling, then inoculation with Aphis gossypii; conditions: soil, 144 h, read-out: Control value
[7] = 500 ppm active ingredient, cucumber seedling drenched at its foot with 5 ml, kept 7 days at 25° C., 30 Aphis gossypii inoculated, examined after 6 days

Row | Compound | pest or weed control at 500 ppm [1] [%] | pest or weed control at 500 ppm (Nilaparvata lugens [3]) [%] | pest or weed control at 500 ppm (Bemisia tabaci) [%] | other results
1 | C=CCS(=O)(=O)c1ccccc1-c1nc2cc(C(F)(F)F)cnc2n1C [Present Compound 11, 2-(2-allylsulfonylphenyl)-3-methyl-6-trifluoromethyl-3H-imidazo[4,5-b]pyridine] | ≥ 90 |  |  | 
2 | CC(C)[S+]([O-])c1ccccc1-c1nc2cc(C(F)(F)F)cnc2n1C (stereo not drawn) [Present Compound 13, 2-(2-isopropylsulfinylphenyl)-3-methyl-6-trifluoromethyl-3H-imidazo[4,5-b]pyridine] | ≥ 90 |  |  | pest or weed control at 500 ppm (Aphis gossypii [2]): ≥ 90%
3 | CC(C)S(=O)(=O)c1ccccc1-c1nc2cc(C(F)(F)F)cnc2n1C [Present Compound 14, 2-(2-isopropylsulfonylphenyl)-3-methyl-6-trifluoromethyl-3H-imidazo[4,5-b]pyridine] | ≥ 90 | ≥ 90 |  | pest or weed control at 500 ppm (Aphis gossypii [2]): ≥ 90%
4 | CCSc1ccccc1-c1nc2cc(C(F)(F)F)cnc2n1CC [Present Compound 21, 3-ethyl-2-(2-ethylsulfanylphenyl)-6-trifluoromethyl-3H-imidazo[4,5-b]pyridine] |  | ≥ 90 | ≥ 90 | 
5 | CCn1c(-c2ccccc2[S+]([O-])CC)nc2cc(C(F)(F)F)cnc21 (stereo not drawn) [Present Compound 22, 2-(2-ethylsulfinylphenyl)-3-ethyl-6-trifluoromethyl-3H-imidazo[4,5-b]pyridine] | ≥ 90 |  | ≥ 90 | 
6 | CCn1c(-c2ccccc2S(=O)(=O)CC)nc2cc(C(F)(F)F)cnc21 [Present Compound 23, 2-(2-ethylsulfonylphenyl)-3-ethyl-6-trifluoromethyl-3H-imidazo[4,5-b]pyridine] | ≥ 90 |  |  | 
7 | CC[S+]([O-])c1ccccc1-c1nc2cc(C(F)(F)F)cnc2n1C(C)C (stereo not drawn) [Present Compound 28, 2-(2-ethylsulfinylphenyl)-3-isopropyl-6-trifluoromethyl-3H-imidazo[4,5-b]pyridine] | ≥ 90 |  |  | 
8 | CCS(=O)(=O)c1ccccc1-c1nc2cc(C(F)(F)F)cnc2n1C(C)C [Present Compound 29, 2-(2-ethylsulfonylphenyl)-3-isopropyl-6-trifluoromethyl-3H-imidazo[4,5-b]pyridine] | ≥ 90 |  |  | 
9 | CC[S+]([O-])c1ccccc1-c1nc2cc(C(F)(F)F)cnc2n1C1CC1 (stereo not drawn) [Present Compound 31, 3-cyclopropyl-2-(2-ethylsulfinylphenyl)-6-trifluoromethyl-3H-imidazo[4,5-b]pyridine] | ≥ 90 |  |  | 
10 | CC[S+]([O-])c1ccccc1-c1nc2cc(C(F)(F)F)cc(Br)c2n1C (stereo not drawn) [Present Compound 75, 7-bromo-2-(2-ethylsulfinylphenyl)-1-methyl-5-trifluoromethyl-1H-benzimidazole] |  |  | ≥ 90 | pest or weed control at 500 ppm (Aphis gossypii [4]): ≥ 90%
11 | CCSc1c(Cl)cccc1-c1nc2cc(C(F)(F)F)cnc2n1C [Present Compound 88, 2-(3-chloro-2-ethylsulfanylphenyl)-3-methyl-6-trifluoromethyl-3H-imidazo[4,5-b]pyridine] |  |  | ≥ 90 | pest or weed control at 500 ppm (Aphis gossypii [2]): ≥ 90%
12 | CC[S+]([O-])c1c(Cl)cccc1-c1nc2cc(C(F)(F)F)cnc2n1C (stereo not drawn) [Present Compound 89, 2-(3-chloro-2-ethylsulfinylphenyl)-3-methyl-6-trifluoromethyl-3H-imidazo[4,5-b]pyridine] |  |  |  | pest or weed control at 500 ppm (Nilaparvata lugens [5]): ≥ 90%; pest or weed control at 500 ppm (Aphis gossypii [2]): ≥ 90%; pest or weed control at 500 ppm (Aphis gossypii [6]; [7]): ≥ 90%
13 | CCS(=O)(=O)c1c(Cl)cccc1-c1nc2cc(C(F)(F)F)cnc2n1C [Present Compound 90, 2-(3-chloro-2-ethylsulfonylphenyl)-3-methyl-6-trifluoromethyl-3H-imidazo[4,5-b]pyridine] |  |  |  | pest or weed control at 500 ppm (Nilaparvata lugens [5]): ≥ 90%; pest or weed control at 500 ppm (Aphis gossypii [6]; [7]): ≥ 90%
14 | CCS(=O)(=O)c1ccccc1-c1nc2cc(C(F)(F)C(F)(F)C(F)(F)F)cnc2n1C [Present Compound 130, 2-(2-ethylsulfonylphenyl)-6-heptafluoropropyl-3-methyl-3H-imidazo[4,5-b]pyridine] |  |  |  | pest or weed control at 500 ppm (Nilaparvata lugens [5]): ≥ 90%; pest or weed control at 500 ppm (Aphis gossypii [6]; Aphis gossypii): ≥ 90%
15 | CCSc1ccccc1-c1nc2cc(SC(F)(F)F)cnc2n1C [Present Compound 161, 2-(2-ethylsulfanyl-phenyl)-3-methyl-6-trifluoromethylsulfanyl-3H-imidazo[4,5-b]pyridine] | ≥ 90 | ≥ 90 | ≥ 90 | pest or weed control at 500 ppm (Aphis gossypii [4]): ≥ 90%
16 | Cn1c(-c2ccccc2S(=O)(=O)CC(F)(F)F)nc2cc(C(F)(F)F)cnc21 [compound 188] |  | ≥ 90 | ≥ 90 | pest or weed control at 500 ppm (Aphis gossypii [4]): ≥ 90%
17 | CCS(=O)(=O)c1cc(C(F)(F)F)ccc1-c1nc2cc(C(F)(F)F)cnc2s1 [compound 251, 2-[2-ethylsulfonyl-4-(trifluoromethyl)phenyl]-6-(trifluoromethyl)thiazolo[5,4-b]pyridine] | ≥ 90 | ≥ 90 |  | pest or weed control at 500 ppm (Nilaparvata lugens [5]): ≥ 90%
18 | CCS(=O)(=O)c1ccccc1-c1nc2cc(S(C)(=O)=O)cnc2n1C [compound 254, 2-(2-ethylsulfonylphenyl)-6-methylsulfonyl3-methyl-3H-imidazo[4,5-b]pyridine] |  |  |  | pest or weed control at 500 ppm (Aphis gossypii [2]): ≥ 90%; pest or weed control at 500 ppm (Aphis gossypii [6]; [7]): ≥ 90%
19 | CCS(=O)(=O)c1cc(C(F)(F)F)ccc1-c1nc2cc(S(=O)(=O)C(F)(F)F)cnc2n1C [compound 302, 2-(2-ethylsulfonyl-4-trifluoromethylphenyl)-3-methyl-6-trifluoromethylsulfonyl-3H-imidazo[4,5-b]pyridine] |  |  |  | pest or weed control at 500 ppm (Aphis gossypii [6]; [7]): ≥ 90%
20 | CCS(=O)(=O)c1cc(S(F)(F)(F)(F)F)ccc1-c1nc2cc(C(F)(F)F)cnc2n1C [compound 343, 2-(2-ethylsulfonyl-4-(pentafluorosulphur)phenyl)-3-methyl-6-trifluoromethyl-3H-imidazo[4,5-b]pyridine] |  | ≥ 90 | ≥ 90 | pest or weed control at 500 ppm (Nilaparvata lugens [5]): ≥ 90%; pest or weed control at 500 ppm (Aphis gossypii [4]): ≥ 90%
